Measured values from paper PMC5387044, “Analogs of the Frog-skin Antimicrobial Peptide Temporin 1Tb Exhibit a Wider Spectrum of Activity and a Stronger Antibiofilm Potential as Compared to the Parental Peptide” (Frontiers in Chemistry, 2017).
Marks after values point to notes of the source that are not given here. No end group written: not given here.

How the values were obtained:
[1] = system: human non-small-cell lung adenocarcinoma A549 cells; settings: 24 h
[2] = system: preformed biofilms of P. aeruginosa ATCC 27853; assay: Biofilm treatment assay on preformed (24-h old) biofilms, CFU counting, alone and with EDTA; format: cell-based, Pseudomonas aeruginosa; settings: 30 μM peptide + 2.5 mM EDTA
[3] = system: preformed biofilms of S. aureus ATCC 33591; assay: as above; format: cell-based, Staphylococcus aureus; settings: 30 μM peptide alone
Description: The activity of TB, TB_L1FK, and TB_KKG6A against preformed (24-h old) biofilms of S. aureus and P. aeruginosa was also investigated. Briefly, biofilms were allowed to form for 24 h in flat-bottom 96-well microplates in the absence of antimicrobial compounds. Established biofilms were then washed three times with PBS in order to remove non-adherent cells and incubated in fresh BPM with different concentrations of the three peptides (from 15 to 120 μM). After 24 h of incubation, the viability of biofilm-associated cells was evaluated by CFU counting. For this purpose, biofilms were washed three times with PBS and bacterial cells were detached from the surface of the wells with a pipette tip, vigorously vortexed and plated in serial dilutions on TSA.
TB_L1FK and TB_KKG6A were combined with EDTA in order to enhance their activity against preformed biofilms of S. aureus and P. aeruginosa. […] Following incubation, the antibiofilm effect was evaluated in terms of number of biofilm-associated viable cells as previously described.
Figure 4 Activity of TB_L1FK and TB_KKG6A, used alone and in combination with EDTA, against preformed (24-h old) biofilms of S. aureus ATCC 33591 (A,B) and P. aeruginosa ATCC 27853 (C,D). The antibiofilm activity of the peptides, EDTA and the peptide-EDTA combinations was evaluated by CFU counting after 24 h of incubation. […]

[4] = system: P. aeruginosa ATCC 27853; settings: ATCC 27853, 24 h, pH 7.4
[5] = system: P. aeruginosa ATCC 27853 biofilm formation
[6] = system: S. aureus ATCC 33591; format: cell-based, Staphylococcus aureus; settings: pH 7.4
[7] = system: P. aeruginosa ATCC 27853; format: cell-based, Pseudomonas aeruginosa; settings: pH 7.4
[8] = system: human peripheral blood mononuclear cells (PBMCs); settings: 24 h
[9] = system: S. aureus ATCC 33591 biofilm formation; format: cell-based, Staphylococcus aureus
[10] = system: S. epidermidis ATCC 35984; settings: ATCC 35984, 24 h, pH 7.4
[11] = system: S. aureus ATCC 33591; settings: ATCC 33591, 24 h, pH 7.4
[12] = system: S. aureus ATCC 33591; settings: for MIC: ATCC 33591, 24 h
[13] = system: P. aeruginosa ATCC 27853; settings: for FIC index / MIC: ATCC 27853, 24 h
[14] = system: K. pneumoniae ATCC BAA-1706; settings: ATCC BAA-1706, 24 h, pH 7.4

Substance | IC50 [1] | Reduction in CFU number of peptide-EDTA combination compared to the peptide used alone [2] | Decrease in the number of biofilm-associated viable cells vs untreated biofilms [3] | MBC [4] | Inhibitory activity on forming biofilms [5] | Time to bactericidal effect (reduction of at least 3 Log10 in viable bacteria) [6] | Time to complete eradication of the starting bacterial inoculum [7] | IC50 [8] | Reduction of biofilm formation vs untreated control [9] | MBC [10] | MBC [11] | FIC index [12] | MIC [12] | Concentration of the peptide resulting in a synergistic effect [13] | FIC index [13] | MIC [13] | MBC [14] | Inhibition of biofilm biomass ([5]; ATCC 27853, 24 h, 24 μM) | Time to bactericidal effect [7]
FLPIVGLLKSLLK-NH2 [TB_L1FK] | 59 µM | approximately 1 Log10 | approximately 2 Log10 | 6 µM | no inhibitory activity | ≤ 30 min | ≤ 5 min | 52 µM | more than 50% | 1.5 µM | 6 µM | > 0.5 | 15 µM | 0.25 (15 μM)^b | 0.25 (15 μM)^b | 120 µM | 6 µM | – | –
KKLLPIVANLLKSLL-NH2 [TB_KKG6A] | 16 µM | approximately 1 Log10 | approximately 2 Log10 | 3 µM | – | ≤ 60 min | – | 49 µM | more than 50% | 1.5 µM | 1.5 µM | > 0.5 | 7.5 µM | 0.25 (3.75 μM) | 0.25 (3.75 μM) | 30 µM | 3 µM | 80% | 15 min
